Where two headings read alike, the source gives them in different places.
Key:
[1] = tested on: hERβ; settings: cited from earlier work
[2] = tested on: estrogen receptor preparations from rat prostates; experiment: Competitive 3H-estradiol binding, rat prostate cytosol estrogen receptor; settings: for Rat prost. ER(RBA): 3H-estradiol as ligand; for prost. ER/uterus ER: ratio of RBA rat prostate ER to rat uterus ER
Description: (§1) In this case, it is assumed that ERβ predominates in the rat prostates over ERα, and ERα predominates in rat uteri over ERβ.

[3] = tested on: estrogen receptor preparations from rat uteri; experiment: Competitive 3H-estradiol binding, rat uterus cytosol estrogen receptor; settings: 3H-estradiol as ligand
Description: as §1

[4] = tested on: adult female rats; experiment: Dissociation of action of the uterus and pituitary gland (uterus growth and ovulation); type: in vivo, rat; settings: s.c., four times on four consecutive days
Description: The studies with respect to the action on uterus growth and ovulation (indirect effect by influencing the secretion of pituitary gland hormones) are performed on adult female rats (body weight of 220-250 g). The substances are subcutaneously administered four times on four consecutive days. The first administration is carried out in the metestrus. One day after the last administration, the autopsy is carried out. The number of oocytes in the Fallopian tube (effect on the ovulation) as well as the uterus weight are determined.

[5] = tested on: hERβ; experiment: Relative binding affinity to hERβ (Kuiper et al.); set-up: species or system human; settings: quotient of RBA hERβ to hERα
Description: as §1

Row | Structure (SMILES) | Rat prost. ER(RBA) ([2]; Table 1, estradiol = 100) | Rat uterus ER(RBA) ([3]; Table 1, estradiol = 100) | Rat prost. ER(RBA) ([2]; Table 2) | prost. ER/uterus ER ([2]; Table 2) | Rat uterus ER(RBA) ([3]; Table 2) | further results
1 | C[C@]12CC[C@@H]3c4ccc(O)cc4CC[C@H]3[C@@H]1C[C@@H](O)[C@@H]2O [Estriol] | – | – | – | – | – | hERβ RBA* ([1]; relative binding affinity, estradiol = 100, cited from Kuiper et al.): 21
2 | C[C@]12CCC3c4ccc(O)cc4CCC3C1CC[C@@H]2O (stereo partly drawn) [Estradiol] | 100 | 100 | – | – | – | ED50, dose-dependent ovulation inhibition and increase in uterus weight [4]: 0.004 mg/kg of body weight
3 | C[C@]12CC[C@H](O)CC1=CCC1C2CC[C@@]2(C)C1CC[C@@H]2O (stereo partly drawn) [5-Andro-stene-diol] | 5 | 0.1 | – | – | – | ERβ/ERα [5]: 3; prost. ER/uterus ER ([2]; Table 1): 50; hERβ RBA* [1]: 17
4 | C=C[C@@]12CCc3cc(O)ccc3[C@H]1CC[C@@]1(C)[C@H]2C[C@@H](F)[C@@H]1O [Compound 1, 8β-Vinyl-estra-1,3,5(10)-16α-fluoro-3,17β-diol] | – | – | 167 | 98 | 1.7 | –
5 | C=C[C@@]12CCc3cc(O)ccc3[C@H]1CC[C@@]1(C)[C@H]2CC[C@@H]1O [Compound 2, 8β-Vinyl-estra-1,3,5(10)-3,17β-diol] | – | – | 63 | 90 | 0.7 | –

— patent US20090029957A1, “8-BETA-SUBSTITUTED ESTRATRIENES AS SELECTIVELY ACTIVE ESTROGENS” (priority 2007, published 2009)
